Experimental data as given in patent US9006450B2 (Boehringer Ingelheim International GmbH, priority 2010, dated 2015).

Target: T1, human ACC2 (Homo sapiens, UniProt O00763)
T1 construct: made in house; host or cells: insect cells (baculoviral expression system)
Assay: ACC2 assay, spectrophotometric 384 well assay (NADH-linked, coupled lactate dehydrogenase/pyruvate kinase)
Format: biochemical
Settings: ACC2 assay, hACC2 construct lacking 128 N-terminal amino acids, 25° C., 340 nm; read-out: IC50
Method in brief: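 ADP output tracked via pyruvate kinase/lactate dehydrogenase NADH oxidation, slope at 340 nm over 15 min, 25° C, with 500 μM ATP and 200 μM each acetyl-CoA and NADH. Enzyme: insect-cell-expressed human ACC2, N-terminal 128 residues deleted; pH 7.5 Tris with citrate, KHCO3. IC50 from four-parameter regression versus vehicle and no-acetyl-CoA controls.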

T1 sequence (O00763 129-2458 limits assumed): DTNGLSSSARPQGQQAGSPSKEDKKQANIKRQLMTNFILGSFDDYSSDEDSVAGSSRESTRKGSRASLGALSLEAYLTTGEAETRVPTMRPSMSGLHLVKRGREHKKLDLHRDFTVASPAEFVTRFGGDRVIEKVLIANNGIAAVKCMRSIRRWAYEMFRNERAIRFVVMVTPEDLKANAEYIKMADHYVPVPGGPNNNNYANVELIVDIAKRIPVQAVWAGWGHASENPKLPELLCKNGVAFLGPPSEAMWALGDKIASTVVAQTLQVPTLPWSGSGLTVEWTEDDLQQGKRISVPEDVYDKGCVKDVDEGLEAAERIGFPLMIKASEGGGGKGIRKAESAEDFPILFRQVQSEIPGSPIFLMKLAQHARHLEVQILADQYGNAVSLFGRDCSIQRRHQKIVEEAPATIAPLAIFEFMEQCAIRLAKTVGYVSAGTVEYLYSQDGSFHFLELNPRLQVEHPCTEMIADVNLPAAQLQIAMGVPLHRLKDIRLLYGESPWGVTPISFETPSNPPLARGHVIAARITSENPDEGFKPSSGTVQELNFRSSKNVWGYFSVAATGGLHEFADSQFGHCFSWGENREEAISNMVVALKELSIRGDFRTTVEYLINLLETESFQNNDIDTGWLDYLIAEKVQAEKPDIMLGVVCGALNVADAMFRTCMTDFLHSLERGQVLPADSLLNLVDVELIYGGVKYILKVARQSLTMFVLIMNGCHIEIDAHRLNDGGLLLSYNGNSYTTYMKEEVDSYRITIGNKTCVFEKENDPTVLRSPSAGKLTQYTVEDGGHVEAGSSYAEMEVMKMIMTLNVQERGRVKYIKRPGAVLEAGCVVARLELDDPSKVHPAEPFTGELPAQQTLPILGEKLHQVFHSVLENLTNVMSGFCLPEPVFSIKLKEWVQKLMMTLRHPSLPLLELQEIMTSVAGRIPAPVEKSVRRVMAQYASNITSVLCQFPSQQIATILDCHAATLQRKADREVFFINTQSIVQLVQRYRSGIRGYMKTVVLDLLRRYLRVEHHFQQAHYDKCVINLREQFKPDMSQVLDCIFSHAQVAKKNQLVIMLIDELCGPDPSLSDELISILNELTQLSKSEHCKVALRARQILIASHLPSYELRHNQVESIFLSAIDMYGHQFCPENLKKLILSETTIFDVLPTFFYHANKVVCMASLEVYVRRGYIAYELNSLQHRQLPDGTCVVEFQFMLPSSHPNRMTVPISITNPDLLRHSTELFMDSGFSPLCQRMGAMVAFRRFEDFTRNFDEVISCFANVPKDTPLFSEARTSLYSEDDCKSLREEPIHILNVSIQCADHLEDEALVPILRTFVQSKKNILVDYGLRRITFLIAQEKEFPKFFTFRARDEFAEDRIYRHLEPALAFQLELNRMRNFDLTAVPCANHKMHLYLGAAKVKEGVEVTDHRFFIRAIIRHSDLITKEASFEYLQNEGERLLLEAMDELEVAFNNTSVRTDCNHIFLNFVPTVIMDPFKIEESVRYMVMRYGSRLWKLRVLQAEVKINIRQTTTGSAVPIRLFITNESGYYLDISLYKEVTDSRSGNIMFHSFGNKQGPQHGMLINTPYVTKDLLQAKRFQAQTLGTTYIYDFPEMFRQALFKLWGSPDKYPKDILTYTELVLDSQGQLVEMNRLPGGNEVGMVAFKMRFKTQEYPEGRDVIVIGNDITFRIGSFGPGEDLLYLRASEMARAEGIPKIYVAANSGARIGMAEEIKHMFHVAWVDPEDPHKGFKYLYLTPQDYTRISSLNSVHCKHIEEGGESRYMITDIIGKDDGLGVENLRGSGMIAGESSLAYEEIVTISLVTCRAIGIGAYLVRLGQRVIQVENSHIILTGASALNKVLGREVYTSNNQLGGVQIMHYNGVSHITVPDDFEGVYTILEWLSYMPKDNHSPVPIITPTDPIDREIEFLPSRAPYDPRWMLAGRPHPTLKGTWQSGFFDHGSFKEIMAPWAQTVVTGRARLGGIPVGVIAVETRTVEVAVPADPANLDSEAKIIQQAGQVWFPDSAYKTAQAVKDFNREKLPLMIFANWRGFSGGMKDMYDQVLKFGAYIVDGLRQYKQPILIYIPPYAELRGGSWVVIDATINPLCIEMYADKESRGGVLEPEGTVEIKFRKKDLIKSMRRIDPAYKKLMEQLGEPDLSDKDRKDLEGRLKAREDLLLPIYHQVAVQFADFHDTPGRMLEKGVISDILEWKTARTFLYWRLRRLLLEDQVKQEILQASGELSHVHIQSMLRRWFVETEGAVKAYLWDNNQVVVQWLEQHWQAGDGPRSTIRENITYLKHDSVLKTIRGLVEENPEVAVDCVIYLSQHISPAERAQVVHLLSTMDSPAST

IC50 [µM] | Structure (SMILES)
9.8 | CC(=O)N[C@@H](C)c1ccc(C2CCN(c3ncc(C(=O)N(C)Cc4ccncc4)cn3)CC2)cc1 [Example 18.1, (S)-2-{4-[4-(1-Acetylamino-ethyl)-phenyl]-piperidin-1-yl}-pyrimidine-5-carboxylic acid methyl-pyridin-4-ylmethyl-amide]
1.4 | CC(=O)N[C@@H](C)c1ccc(C2CCN(c3ncc(C(=O)Nc4cccc(F)c4)cn3)CC2)cc1 [Example 18.2]
0.18 | CC(=O)N[C@@H](C)c1ccc(C2CCN(c3ncc(C(=O)Nc4ccc(F)cc4)cn3)CC2)cc1 [Example 18.3]
1.8 | CC(=O)N[C@@H](C)c1ccc(C2CCN(c3ncc(C(=O)N(C)c4ccc(C)cc4)cn3)CC2)cc1 [Example 18.4]
1.9 | CC(=O)N[C@@H](C)c1ccc(C2CCN(c3ncc(C(=O)NC4CC4)cn3)CC2)cc1 [Example 18.5]
0.26 | CC(=O)N[C@@H](C)c1ccc(C2CCN(c3ncc(C(=O)Nc4ccccc4F)cn3)CC2)cc1 [Example 18.6]
3.6 | CC(=O)N[C@@H](C)c1ccc(C2CCN(c3ncc(C(=O)Nc4ccccc4C)cn3)CC2)cc1 [Example 18.7]
0.26 | CC(=O)N[C@@H](C)c1ccc(C2CCN(c3ncc(C(=O)Nc4cccc(C)c4)cn3)CC2)cc1 [Example 18.8]
1.6 | CC(=O)N[C@@H](C)c1ccc(C2CCN(c3ncc(C(=O)N4CCc5ccccc54)cn3)CC2)cc1 [Example 18.9]
11.5 | CC(=O)N[C@@H](C)c1ccc(C2CCN(c3ncc(C(=O)N(C)CC4OCCO4)cn3)CC2)cc1 [Example 18.10]
0.74 | CC(=O)N[C@@H](C)c1ccc(C2CCN(c3ncc(C(=O)N4CCCCC4)cn3)CC2)cc1 [Example 18.11]
0.42 | COc1cccc(NC(=O)c2cnc(N3CCC(c4ccc([C@H](C)NC(C)=O)cc4)CC3)nc2)c1 [Example 18.12]
6.1 | CC(=O)N[C@@H](C)c1ccc(C2CCN(c3ncc(C(=O)NCc4ccccn4)cn3)CC2)cc1 [Example 18.13]
10.2 | COc1ccccc1CNC(=O)c1cnc(N2CCC(c3ccc([C@H](C)NC(C)=O)cc3)CC2)nc1 [Example 18.14]
7.2 | CC(=O)N[C@@H](C)c1ccc(C2CCN(c3ncc(C(=O)Nc4ccccn4)cn3)CC2)cc1 [Example 18.15]
5.1 | COc1ccccc1NC(=O)c1cnc(N2CCC(c3ccc([C@H](C)NC(C)=O)cc3)CC2)nc1 [Example 18.16]
7.9 | CC(=O)N[C@@H](C)c1ccc(C2CCN(c3ncc(C(=O)Nc4ccc(C)cc4)cn3)CC2)cc1 [Example 18.17]
1.1 | CC(=O)N[C@@H](C)c1ccc(C2CCN(c3ncc(C(=O)Nc4ccc5c(c4)OCO5)cn3)CC2)cc1 [Example 18.18]
20.5 | COc1ccc(CNC(=O)c2cnc(N3CCC(c4ccc([C@H](C)NC(C)=O)cc4)CC3)nc2)cc1 [Example 18.19]
0.53 | CC(=O)N[C@@H](C)c1ccc(C2CCN(c3ncc(C(=O)N4CC5CCCC5C4)cn3)CC2)cc1 (some centres unmarked) [Example 18.20]
2.6 | CC(=O)N[C@@H](C)c1ccc(C2CCN(c3ncc(C(=O)NCc4cc[nH]n4)cn3)CC2)cc1 [Example 18.21]
11.4 | CC(=O)N[C@@H](C)c1ccc(C2CCN(c3ncc(C(=O)NCc4ccn(C)n4)cn3)CC2)cc1 [Example 18.22]
3.1 | COC1CN(C(=O)c2cnc(N3CCC(c4ccc([C@H](C)NC(C)=O)cc4)CC3)nc2)C1 [Example 18.23]

IC50 [µM] | Structure (SMILES)
5.2 | COC1CCN(C(=O)c2cnc(N3CCC(c4ccc([C@H](C)NC(C)=O)cc4)CC3)nc2)CC1 [Example 18.24]
7.1 | COCCN(C)C(=O)c1cnc(N2CCC(c3ccc([C@H](C)NC(C)=O)cc3)CC2)nc1 [Example 18.25]
2.5 | CC(=O)N[C@@H](C)c1ccc(C2CCN(c3ncc(C(=O)N(C)C4CC4)cn3)CC2)cc1 [Example 18.26]
10.4 | COC[C@H]1CCCN1C(=O)c1cnc(N2CCC(c3ccc([C@H](C)NC(C)=O)cc3)CC2)nc1 [Example 18.27]
16.9 | CC(=O)N[C@@H](C)c1ccc(C2CCN(c3ncc(C(=O)N4Cc5cnn(C)c5C4)cn3)CC2)cc1 [Example 18.28]
6.5 | CC(=O)N[C@@H](C)c1ccc(C2CCN(c3ncc(C(=O)NCc4cocn4)cn3)CC2)cc1 [Example 18.29]
5.2 | CC(=O)N[C@@H](C)c1ccc(C2CCN(c3ncc(C(=O)NC4CC4(F)F)cn3)CC2)cc1 (some centres unmarked) [Example 18.30]
9.3 | CC(=O)N[C@@H](C)c1ccc(C2CCN(c3ncc(C(=O)N(C)Cc4cccnc4)cn3)CC2)cc1 [Example 18.31]
5.3 | CC(=O)N[C@@H](C)c1ccc(C2CCN(c3ncc(C(=O)NCc4ccoc4)cn3)CC2)cc1 [Example 18.32]
1.5 | CC(=O)N[C@@H](C)c1ccc(C2CCN(c3ncc(C(=O)Nc4cccc5c4OCO5)cn3)CC2)cc1 [Example 18.33]
3.5 | CC(=O)N[C@@H](C)c1ccc(C2CCN(c3ncc(C(=O)NCc4ncccn4)cn3)CC2)cc1 [Example 18.34]
7.3 | CC(=O)N[C@@H](C)c1ccc(C2CCN(c3ncc(C(=O)N[C@H]4CCOC4)cn3)CC2)cc1 [Example 18.35]
13.2 | CC(=O)N[C@@H](C)c1ccc(C2CCN(c3ncc(C(=O)N4[C@@H]5CC[C@H]4C[C@@H](O)C5)cn3)CC2)cc1 [Example 18.36]
6.4 | CC(=O)N[C@@H](C)c1ccc(C2CCN(c3ncc(C(=O)N(C)Cc4ccccn4)cn3)CC2)cc1 [Example 18.37]
3.1 | CC(=O)N[C@@H](C)c1ccc(C2CCN(c3ncc(C(=O)N4Cc5cccnc5C4)cn3)CC2)cc1 [Example 18.38]
15.2 | CC(=O)N[C@@H](C)c1ccc(C2CCN(c3ncc(C(=O)NC4COC4)cn3)CC2)cc1 [Example 18.39]
6.6 | CC(=O)N[C@@H](C)c1ccc(C2CCN(c3ncc(C(=O)N4CCc5cnccc54)cn3)CC2)cc1 [Example 18.40]
21.4 | CC(=O)N[C@@H](C)c1ccc(C2CCN(c3ncc(C(=O)NCC4CCCCO4)cn3)CC2)cc1 (some centres unmarked) [Example 18.41]
14 | CC(=O)N[C@@H](C)c1ccc(C2CCN(c3ncc(C(=O)N(C)CC#N)cn3)CC2)cc1 [Example 18.42]
16.8 | CC(=O)N[C@@H](C)c1ccc(C2CCN(c3ncc(C(=O)N(C)CCN(C)C)cn3)CC2)cc1 [Example 18.43]
18.3 | CCN1CCCC1CNC(=O)c1cnc(N2CCC(c3ccc([C@H](C)NC(C)=O)cc3)CC2)nc1 (some centres unmarked) [Example 18.44]
17.2 | CC(=O)N[C@@H](C)c1ccc(C2CCN(c3ncc(C(=O)NCC(N)=O)cn3)CC2)cc1 [Example 18.45]
6 | CC(=O)N[C@@H](C)c1ccc(C2CCN(c3ncc(C(=O)N4Cc5ccncc5C4)cn3)CC2)cc1 [Example 18.46]

IC50 [µM] | Structure (SMILES)
29.1 | CC(=O)N[C@@H](C)c1ccc(C2CCN(c3ncc(C(=O)NCCCO)cn3)CC2)cc1 [Example 18.47]
3.6 | CC(=O)N[C@@H](C)c1ccc(C2CCN(c3ncc(C(=O)NC(C)C)cn3)CC2)cc1 [Example 18.48]
13.3 | CC(=O)N[C@@H](C)c1ccc(C2CCN(c3ncc(C(=O)NC[C@H](O)CO)cn3)CC2)cc1 [Example 18.50]
13.8 | CC(=O)N[C@@H](C)c1ccc(C2CCN(c3ncc(C(=O)NCCN4CCCC4)cn3)CC2)cc1 [Example 18.51]
13.6 | CC(=O)N[C@@H](C)c1ccc(C2CCN(c3ncc(C(=O)N4CCN(C)CC4)cn3)CC2)cc1 [Example 18.52]
15.1 | CC(=O)N[C@@H](C)c1ccc(C2CCN(c3ncc(C(=O)N4CCN(C(C)=O)CC4)cn3)CC2)cc1 [Example 18.53]
2.1 | CC(=O)N[C@@H](C)c1ccc(C2CCN(c3ncc(C(=O)N4CCCC4)cn3)CC2)cc1 [Example 18.54]
8.8 | COCCNC(=O)c1cnc(N2CCC(c3ccc([C@H](C)NC(C)=O)cc3)CC2)nc1 [Example 18.55]
14.9 | CC(=O)N[C@@H](C)c1ccc(C2CCN(c3ncc(C(=O)NCCC4CCCN4C)cn3)CC2)cc1 (some centres unmarked) [Example 18.56]
22.4 | CC(=O)N[C@@H](C)c1ccc(C2CCN(c3ncc(C(=O)NCC4CCCO4)cn3)CC2)cc1 (some centres unmarked) [Example 18.57]
18.1 | CNCCNC(=O)c1cnc(N2CCC(c3ccc([C@H](C)NC(C)=O)cc3)CC2)nc1 [Example 18.58]
18.5 | CC(=O)N[C@@H](C)c1ccc(C2CCN(c3ncc(C(=O)NCCN4CCCCC4)cn3)CC2)cc1 [Example 18.59]
15.5 | CC(=O)N[C@@H](C)c1ccc(C2CCN(c3ncc(C(=O)NCC4CCNCC4)cn3)CC2)cc1 [Example 18.60]
18.9 | CC(=O)N[C@@H](C)c1ccc(C2CCN(c3ncc(C(=O)N4CCC(C(N)=O)CC4)cn3)CC2)cc1 [Example 18.61]
11.8 | CC(=O)N[C@@H](C)c1ccc(C2CCN(c3ncc(C(=O)NCC4CCN(Cc5ccccc5)C4)cn3)CC2)cc1 (some centres unmarked) [Example 18.62]
23.1 | CC(=O)N[C@@H](C)c1ccc(C2CCN(c3ncc(C(=O)NCC(O)C(F)(F)F)cn3)CC2)cc1 (some centres unmarked) [Example 18.63]
25.4 | CC(=O)N[C@@H](C)c1ccc(C2CCN(c3ncc(C(=O)NCCS(C)(=O)=O)cn3)CC2)cc1 [Example 18.64]
10.2 | CC(=O)N[C@@H](C)c1ccc(C2CCN(c3ncc(C(=O)NCC4CCCCN4)cn3)CC2)cc1 (some centres unmarked) [Example 18.65]
15.8 | CC(=O)N[C@@H](C)c1ccc(C2CCN(c3ncc(C(=O)NCCC(=O)N(C)C)cn3)CC2)cc1 [Example 18.66]
23.7 | CC(=O)N[C@@H](C)c1ccc(C2CCN(c3ncc(C(=O)NCC4CCN(c5ccccc5)C4)cn3)CC2)cc1 (some centres unmarked) [Example 18.67]
19 | CC(=O)N[C@@H](C)c1ccc(C2CCN(c3ncc(C(=O)N(C)CC4(C)COC4)cn3)CC2)cc1 [Example 18.68]
20.8 | CC(=O)N[C@@H](C)c1ccc(C2CCN(c3ncc(C(=O)N(C)C4CCS(=O)(=O)C4)cn3)CC2)cc1 (some centres unmarked) [Example 18.69]
